The source of these data is publication PMC7901654, “Bioisosteric Discovery of NPA101.3, a Second-Generation RET/VEGFR2 Inhibitor Optimized for Single-Agent Polypharmacology” (Journal of Medicinal Chemistry, 2020).

The structures appear in SMILES notation.

The test system of assay [1] is RET/M918T, RET/A883F, and RET/V804L/M. As to the kind of experiment: RET phosphorylation Western blot in RAT1 cells, other point mutants. Type of assay: cell-based. The following applies: 2 h. As for the experimental part:
Fibroblasts transfected with RET/C634R were treated with increasing doses of NPA101.3, ranging from 0.1 to 10.0 nM. RET autophosphorylation was assessed by Western blotting using two different antibodies that can recognize phosphorylated Y905, located in the RET kinase activation loop, or Y1062, a multidocking site involved in RET downstream signaling.[41]
Figure 4 NPA101.3-mediated inhibition of phosphorylation and signaling of oncogenic RET mutants and VEGFR2 in intact cells. Serum-starved RAT1 cells exogenously expressing the (A and B) indicated RET point mutants or (C) NIH3T3 cells exogenously expressing the indicated RET rearranged mutants were treated for 2 h with the indicated concentrations of the compound. Total cell lysates (50 μg) were subjected to immunoblotting with anti-phospho-Y1062 (αp1062) and anti-phospho-Y905 (αp905) RET antibodies. The blots were normalized using the anti-RET (αRET) antibody. (D) HEK293 cells were transiently transfected with human VEGFR2; 36 h after transfection, cells were serum starved for 12 h. The indicated doses of the compound or vehicle (NT) were added for 2 h, and then VEGFA (100 ng/mL) stimulation was applied for 15 min. […]
Protein lysates were prepared according to standard procedures. […] Immune complexes were detected with the enhanced chemiluminescence kit (Amersham Pharmacia Biotech, Little Chalfont, U.K.). […]
In general terms: A western blot detects proteins with antibodies after separation by electrophoresis.

Assay [2] has as its system TT (RET/C634W), MZ-CRC-1 (RET/M918T), TPC-1 (CCDC6-RET). As to the kind of experiment: RET autophosphorylation and SHC/MAPK signalling in RET mutant human cancer cell lines. Type of assay: cell-based. The following applies: 2 h treatment. As for the experimental part: NPA101.3 inhibited RET autophosphorylation and signaling along the SHC/MAPK pathway in human cancer cell lines endogenously expressing RET oncogenic variants, including MTC cell lines, TT (RET/C634W) and MZ-CRC-1 (RET/M918T), and PTC cell line TPC-1 (CCDC6-RET); in the lung adenocarcinoma cell line Lc-2/ad (CCDC6-RET), only RET and SHC (but not MAPK) dephosphorylation was detectable (Figure S4).
Protein lysates were prepared according to standard procedures. Briefly, cells were lysed in a buffer containing 50 mM N-2-hydroxyethylpiperazine-N′-2-ethanesulfonic acid (HEPES; pH 7.5), 1% (v/v) Triton X-100, 150 mM NaCl, 5 mM EGTA, 50 mM NaF, 20 mM sodium pyrophosphate, 1 mM sodium vanadate, 2 mM phenylmethanesulfonyl fluoride (PMSF), and 1 μg/mL aprotinin. Lysates were clarified by centrifugation at 10000g for 15 min. […] Immune complexes were detected with the enhanced chemiluminescence kit (Amersham Pharmacia Biotech, Little Chalfont, U.K.). Anti-phospho-SHC (#Y317), which recognizes SHC protein when phosphorylated on Y317, was from Upstate Biotechnology Inc. (Lake Placid, NY). Anti-SHC (H-108) was from Santa Cruz Biotechnology (Santa Cruz, CA). Anti-MAPK (9101) and anti-phospho-MAPK (9102), specific for p42/44MAPK (ERK1/2) phosphorylated on Thr202/Tyr204, antibodies were from Cell Signaling Technologies (Danvers, MA). […]

Take `CC(C)(C)c1cc(NC(=O)Cc2ccc(-n3cnc4cc(-c5ccc(S(C)(=O)=O)cc5)ccc43)cc2)no1` [NPA101.3]: in assay [1], the “phosphorylation of other MTC-associated RET oncogenic point mutants” value is reported as “inhibited”. Besides, the “RET autophosphorylation and signaling along the SHC/MAPK pathway” value in assay [2] was “inhibited”.
